Source: ChEMBL document CHEMBL3351884, “Semi-synthesis of oxygenated dolabellane diterpenes with highly in vitro anti-HIV-1 activity” (Bioorg Med Chem Lett, 2014)

Assays:
[1] = Selectivity index, ratio of CC50 for human MT2 cells to EC50 for X4 tropic HIV1 3B infected in human MT2 cells; format: toxicity, cell-based; conditions: read-out: Ratio CC50/EC50
[2] = Cytotoxicity against human MT2 cells after 4 to 5 days by MTT assay; format: cell-based
[3] = system: Human immunodeficiency virus 1; experiment: Antiviral activity against X4 tropic HIV1 3B infected in human MT2 cells assessed as protection against virus-induced cytopathic effect after 2 to 3 days by MTT assay; format: functional, organism-based; conditions: Human immunodeficiency virus 1, 3B

Row | Structure (SMILES) | selectivity ratio [1] | CC50 [2] | EC50 [3]
1 | CC(C)=C1CC[C@@]2(C)C/C=C(\C)CC/C=C(\C)CC[C@H]12 | 8.7 | 1830 µM | 210 µM
2 | CC(C)=C1C(=O)C[C@@]2(C)C[C@@H]3O[C@@]3(C)CC[C@@H]3O[C@@]3(C)CC[C@H]12 | 2320 | 1690 µM | 0.73 µM
3 | C=C1CC[C@@H]2C(=C(C)C)C(=O)C[C@@]2(C)C[C@@H](O)[C@](C)(O)CC[C@@H]1O | 236 | 920 µM | 3.9 µM
4 | CC(C)=C1C(=O)C[C@@]2(C)C/C=C(\CO)CC/C=C(\C)CC[C@H]12 | 1420 | 980 µM | 0.69 µM
5 | C[C@H]1/C=C/[C@@]2(C)CC[C@@H](C(C)(C)O)[C@@H]2[C@@H](O)C[C@@](C)(O)/C=C\C1 | 184 | 1130 µM | 6.16 µM
6 | CC(C)=C1C(=O)C[C@@]2(C)C/C=C(\C)CC/C=C(\C)CC[C@H]12 [DOLABELLANE] | 13.5 | 2570 µM | 190 µM
7 | Cc1ccnc2c1NC(=O)c1cccnc1N2C1CC1 [NEVIRAPINE] | – | 320 µM | –
